The numbers were not newly measured in patent publication US20260335397A1, “TREATMENT OF GEOGRAPHIC ATROPHY” (Apellis Pharmaceuticals, Inc., priority 2022, published 2026), which cites them from elsewhere.

Where a SMILES comes first, the peptide text is derived from it. Bridges are numbered along the chain shown (N, C = ends). [ ]: non-standard residue; d: D form. Abu = CC[C@H](N)C(=O)O

This series concerns complement activation. The settings on record: relative to compstatin (C-terminally amidated); published data; cited from earlier work.

In the case of `CC[C@H](C)[C@H](NC(=O)CN)C(=O)N[C@H]1CSSC[C@@H](C(=O)N[C@H](C(=O)N[C@@H](CC(N)=O)C(=O)O)[C@@H](C)O)NC(=O)[C@H](CCCNC(=N)N)NC(=O)[C@H](Cc2c[nH]cn2)NC(=O)[C@H](C)NC(=O)CNC(=O)[C@H](Cc2c[nH]c3cc(F)ccc23)NC(=O)[C@H](CC(=O)O)NC(=O)[C@H](CCC(N)=O)NC(=O)[C@H](Cc2c[nH]c3cc(F)ccc23)NC(=O)[C@H](C(C)C)NC1=O` [+G/V4(6fW)/W7(6fW)H9A+N-OH], the Activity over compstatin is reported as 126xmore.
For the molecule `CC[C@H](C)[C@H](NC(C)=O)C(=O)N[C@H]1CSSC[C@@H](C(=O)N[C@H](C(=O)O)[C@@H](C)O)NC(=O)[C@H](CCCNC(=N)N)NC(=O)[C@H](Cc2c[nH]cn2)NC(=O)[C@H](C)NC(=O)CNC(=O)[C@H](Cc2c[nH]c3ccccc23)NC(=O)[C@H](CC(=O)O)NC(=O)[C@H](CCC(N)=O)NC(=O)[C@H](Cc2cccc3ccccc23)NC(=O)[C@H](C(C)C)NC1=O` [Ac V4(1-Nal)/H9A-OH], the Activity over compstatin is listed as 30xmore.
For the molecule `CC[C@H](C)[C@H](NC(C)=O)C(=O)N[C@H]1CSSC[C@@H](C(=O)N[C@H](C(=O)O)[C@@H](C)O)NC(=O)[C@H](CCCNC(=N)N)NC(=O)[C@H](Cc2c[nH]cn2)NC(=O)[C@H](C)NC(=O)CNC(=O)[C@H](Cc2c[nH]c3ccccc23)NC(=O)[C@H](CC(=O)O)NC(=O)[C@H](CCC(N)=O)NC(=O)[C@H](Cc2ccc3ccccc3c2)NC(=O)[C@H](C(C)C)NC1=O` [Ac V4(2-Nal)/H9A-OH], the Activity over compstatin is recorded as 38xmore.
On to `CC[C@H](C)[C@H](NC(C)=O)C(=O)N[C@H]1CSSC[C@@H](C(=O)N[C@H](C(N)=O)[C@@H](C)O)NC(=O)[C@H](CCCNC(=N)N)NC(=O)[C@H](Cc2c[nH]cn2)NC(=O)[C@H](C)NC(=O)CNC(=O)[C@H](Cc2c[nH]c3ccc(F)cc23)NC(=O)[C@H](CC(=O)O)NC(=O)[C@H](CCC(N)=O)NC(=O)[C@H](Cc2cn(C)c3ccccc23)NC(=O)[C@H](C(C)C)NC1=O` [Ac-V4(1MeW)/W7(5fW)/H9A], for which the Activity over compstatin was 264xmore.
Take `CC[C@H](C)[C@H](NC(C)=O)C(=O)N[C@H]1CSSC[C@@H](C(=O)N[C@H](C(N)=O)[C@@H](C)O)NC(=O)[C@H](CCCNC(=N)N)NC(=O)[C@H](Cc2c[nH]cn2)NC(=O)[C@H](C)NC(=O)CNC(=O)[C@H](Cc2c[nH]c3ccccc23)NC(=O)[C@H](CC(=O)O)NC(=O)[C@H](CCC(N)=O)NC(=O)[C@H](Cc2ccc3ccccc3c2)NC(=O)[C@H](C(C)C)NC1=O` [Ac-V4(2-Nal)/H9A]: the Activity over compstatin is given as 99xmore.
Turning to `CC[C@H](C)[C@H](NC(C)=O)C(=O)N[C@H]1CSSC[C@@H](C(=O)N[C@H](C(N)=O)[C@@H](C)O)NC(=O)[C@H](CCCNC(=N)N)NC(=O)[C@H](Cc2c[nH]cn2)NC(=O)[C@H](C)NC(=O)CNC(=O)[C@H](Cc2c[nH]c3ccccc23)NC(=O)[C@H](CC(=O)O)NC(=O)[C@H](CCC(N)=O)NC(=O)[C@H](Cc2c[nH]c3ccc(C)cc23)NC(=O)[C@H](C(C)C)NC1=O` [Ac-V4(5-MeW)/H9A], the Activity over compstatin is on record as 67xmore.
Consider `CC[C@H](C)[C@H](NC(C)=O)C(=O)N[C@H]1CSSC[C@@H](C(=O)N[C@H](C(N)=O)[C@@H](C)O)NC(=O)[C@H](CCCNC(=N)N)NC(=O)[C@H](Cc2c[nH]cn2)NC(=O)[C@H](C)NC(=O)CNC(=O)[C@H](Cc2c[nH]c3ccccc23)NC(=O)[C@H](CC(=O)O)NC(=O)[C@H](CCC(N)=O)NC(=O)[C@H](Cc2c[nH]c3ccc(F)cc23)NC(=O)[C@H](C(C)C)NC1=O` [Ac-V4(5fW)/H9A], for which the Activity over compstatin is recorded as 31xmore.
For the molecule `CC[C@H](C)[C@H](NC(C)=O)C(=O)N[C@H]1CSSC[C@@H](C(=O)N[C@H](C(=O)O)[C@@H](C)O)NC(=O)[C@H](CCCNC(=N)N)NC(=O)[C@H](Cc2c[nH]cn2)NC(=O)[C@H](C)NC(=O)CNC(=O)[C@H](Cc2c[nH]c3ccccc23)NC(=O)[C@H](CC(=O)O)NC(=O)[C@H](CCC(N)=O)NC(=O)[C@H](Cc2ccc(C(=O)c3ccccc3)cc2)NC(=O)[C@H](C(C)C)NC1=O` [Ac-V4(Bpa)/H9A-OH], the Activity over compstatin is reported as 49xmore.
`CC[C@H](C)[C@H](NC(C)=O)C(=O)N[C@H]1CSSC[C@@H](C(=O)N[C@H](C(N)=O)[C@@H](C)O)NC(=O)[C@H](CCCNC(=N)N)NC(=O)[C@H](Cc2c[nH]cn2)NC(=O)[C@H](C)NC(=O)CNC(=O)[C@H](Cc2c[nH]c3ccccc23)NC(=O)[C@H](CC(=O)O)NC(=O)[C@H](CCC(N)=O)NC(=O)[C@H](Cc2ccc(C(=O)c3ccccc3)cc2)NC(=O)[C@H](C(C)C)NC1=O` [Ac-V4(Bpa)/H9A]: the Activity over compstatin is listed as 86xmore.
Turning to `CC[C@H](C)[C@H](NC(C)=O)C(=O)N[C@H]1CSSC[C@@H](C(=O)N[C@H](C(=O)O)[C@@H](C)O)NC(=O)[C@H](CCCNC(=N)N)NC(=O)[C@H](Cc2c[nH]cn2)NC(=O)[C@H](C)NC(=O)CNC(=O)[C@H](Cc2c[nH]c3ccccc23)NC(=O)[C@H](CC(=O)O)NC(=O)[C@H](CCC(N)=O)NC(=O)[C@H](Cc2csc3ccccc23)NC(=O)[C@H](C(C)C)NC1=O` [Ac-V4(Bta)/H9A-OH], the Activity over compstatin is given as 65xmore.
Take `CC[C@H](C)[C@H](NC(C)=O)C(=O)N[C@H]1CSSC[C@@H](C(=O)N[C@H](C(N)=O)[C@@H](C)O)NC(=O)[C@H](CCCNC(=N)N)NC(=O)[C@H](Cc2c[nH]cn2)NC(=O)[C@H](C)NC(=O)CNC(=O)[C@H](Cc2c[nH]c3ccccc23)NC(=O)[C@H](CC(=O)O)NC(=O)[C@H](CCC(N)=O)NC(=O)[C@H](Cc2csc3ccccc23)NC(=O)[C@H](C(C)C)NC1=O` [Ac-V4(Bta)/H9A]: the Activity over compstatin is listed as 64xmore.
For the molecule `CC[C@@H]1NC(=O)CNC(=O)[C@H](Cc2c[nH]c3ccccc23)NC(=O)[C@H](CC(=O)O)NC(=O)[C@H](CCC(N)=O)NC(=O)[C@H](Cc2c[nH]c3ccccc23)NC(=O)[C@H](C(C)C)NC(=O)[C@@H](NC(=O)[C@@H](NC(C)=O)[C@@H](C)CC)CSSC[C@@H](C(=O)N[C@H](C(N)=O)[C@@H](C)O)NC(=O)[C@H](CCCNC(=N)N)NC(=O)[C@H](Cc2c[nH]cn2)NC1=O` [Ac-V4W/H9(2-Abu)] (Ac-ICVWQDWG[Abu]HRCT-NH2; disulfide 2-12), the Activity over compstatin is 64xmore.
As to `CC[C@H](C)[C@H](NC(C)=O)C(=O)N[C@H]1CSSC[C@@H](C(=O)N[C@@H](C(=O)O)[C@H](C)O)NC(=O)[C@H](CCCNC(=N)N)NC(=O)[C@H](Cc2c[nH]cn2)NC(=O)[C@H](C)NC(=O)CNC(=O)[C@H](Cc2c[nH]c3ccccc23)NC(=O)[C@H](CC(=O)O)NC(=O)[C@H](CCC(N)=O)NC(=O)[C@H](Cc2c[nH]c3ccccc23)NC(=O)[C@H](C(C)C)NC1=O` [Ac-V4W/H9A/T13dT-OH], the Activity over compstatin is reported as 55xmore.
For `CC[C@H](C)[C@H](NC(C)=O)C(=O)N[C@H]1CSSC[C@@H](C(=O)N[C@H](C(N)=O)[C@@H](C)O)NC(=O)[C@H](CCCNC(=N)N)NC(=O)[C@H](Cc2c[nH]cn2)NC(=O)[C@H](C)NC(=O)CNC(=O)[C@H](Cc2c[nH]c3ccccc23)NC(=O)[C@H](CC(=O)O)NC(=O)[C@H](CCC(N)=O)NC(=O)[C@H](Cc2c[nH]c3ccccc23)NC(=O)[C@H](C(C)C)NC1=O` [Ac-V4W/H9A], the Activity over compstatin is 45xmore.
For the molecule `CC[C@H](C)[C@H](NC(C)=O)C(=O)N[C@H]1CSSC[C@@H](C(=O)N[C@H](C(N)=O)[C@@H](C)O)NC(=O)[C@H](CCCNC(=N)N)NC(=O)[C@H](Cc2c[nH]cn2)NC(=O)[C@H](C)NC(=O)CNC(=O)[C@H](Cc2c[nH]c3ccc(F)cc23)NC(=O)[C@H](CC(=O)O)NC(=O)[C@H](CCC(N)=O)NC(=O)[C@H](Cc2c[nH]c3ccccc23)NC(=O)[C@H](C(C)C)NC1=O` [Ac-V4W/W7(5fW)/H9A], the Activity over compstatin is 121xmore.
Take `CC[C@H](C)[C@H](NC(C)=O)C(=O)N[C@H]1CSSC[C@@H](C(=O)N[C@H](C(N)=O)[C@@H](C)O)NC(=O)[C@H](CCCNC(=N)N)NC(=O)[C@H](Cc2c[nH]cn2)NC(=O)[C@H](C)NC(=O)CNC(=O)[C@H](Cc2c[nH]c3ccccc23)NC(=O)[C@H](CC(=O)O)NC(=O)[C@H](CCC(N)=O)NC(=O)[C@H](Cc2ccc(O)cc2)NC(=O)[C@H](C(C)C)NC1=O` [Ac-V4Y/H9A]: the Activity over compstatin is reported as 14xmore.
Regarding `CC[C@H](C)[C@H](NC(C)=O)C(=O)N[C@H]1CSSC[C@@H](C(=O)N[C@H](C(=O)O)[C@@H](C)O)NC(=O)[C@H](CCCNC(=N)N)NC(=O)[C@H](Cc2c[nH]cn2)NC(=O)[C@H](C)NC(=O)CNC(=O)[C@H](Cc2c[nH]c3ccccc23)NC(=O)[C@H](CC(=O)O)NC(=O)[C@H](CCC(N)=O)NC(=O)[C@H](C2Cc3ccccc3C2)NC(=O)[C@H](C(C)C)NC1=O` [Ac-V42Igl/H9A-OH], the Activity over compstatin was 37xmore.
For `CC[C@H](C)[C@H](NC(C)=O)C(=O)N[C@H]1CSSC[C@@H](C(=O)N[C@H](C(N)=O)[C@@H](C)O)NC(=O)[C@H](CCCNC(=N)N)NC(=O)[C@H](Cc2c[nH]cn2)NC(=O)[C@H](C)NC(=O)CNC(=O)[C@H](Cc2c[nH]c3ccccc23)NC(=O)[C@H](CC(=O)O)NC(=O)[C@H](CCC(N)=O)NC(=O)[C@H](C2Cc3ccccc3C2)NC(=O)[C@H](C(C)C)NC1=O` [Ac-V42Igl/H9A], the Activity over compstatin is recorded as 39xmore.
For `CC[C@H](C)[C@H](NC(C)=O)C(=O)N[C@H]1CSSC[C@@H](C(=O)N[C@H](C(N)=O)[C@@H](C)O)NC(=O)[C@H](CCCNC(=N)N)NC(=O)[C@H](Cc2c[nH]cn2)NC(=O)[C@H](Cc2c[nH]cn2)NC(=O)CNC(=O)[C@H](Cc2c[nH]c3ccccc23)NC(=O)[C@H](CC(=O)O)NC(=O)[C@H](CCC(N)=O)NC(=O)[C@H](C(C)C)NC(=O)[C@H](C(C)C)NC1=O` [Ac-compstatin], the Activity over compstatin was 3xmore.
